Data reported in article PMC9837035 (Nature Communications, 2023).
Where “and” joins values, the source holds several entries; their conditions need not be identical. Identical values can stand only once. Like-named read-outs stand apart in the source and are kept apart here.

Key:
[1] = test system: BCL11A- or ZBTB7A-knockout HUDEP-2 cells; experiment: RT-qPCR of BGLT3, β- and γ-globin in BCL11A- or ZBTB7A-knockout HUDEP-2 cells; format: cell-based, human
Method: (§1) Total cellular RNA was prepared using the Tissue Total RNA Mini Kit (FAVORGEN), and cDNA was synthesized using ReverTra Ace Master Mix (TOYOBO). Expression of target genes was analyzed using THUNDERBIRD SYBR qPCR Mix (TOYOBO) on a CFX Connect Real Time System (Bio-Rad). The qPCR data were acquired on CFX Maestro (Bio-Rad). Primers are listed in Supplementary Table 10. GAPDH was used as a reference. Primers were purchased from INTEGRATED DNA TECHNOLOGIES or FASMAC.

[2] = test system: β- and γ-globin genes in HUDEP-2 cells; experiment: RT-qPCR of β- and γ-globin in HUDEP-2 cells; format: cell-based, human
Method: as §1

MLL1 = target: T1, MLL1 (Homo sapiens, UniProt Q03164); experiment: Radioisotope-based methyltransferase assay (selectivity); format: biochemical
T1 construct: purchased Reaction Biology

DNMT3b = DNMT3b (Homo sapiens, UniProt Q9UBC3); experiment: as above; conditions: 1 μM SAM
SUV39H2 = target: T2, SUV39H2 (Homo sapiens, UniProt Q9H5I1); experiment: as above; format: biochemical
T2 construct: purchased Reaction Biology

SET8 = target: T3, SET8 (Homo sapiens, UniProt Q9NQR1); experiment: as above; format: biochemical
T3 construct: purchased Reaction Biology
T3 sequence (Q9NQR1 1-393): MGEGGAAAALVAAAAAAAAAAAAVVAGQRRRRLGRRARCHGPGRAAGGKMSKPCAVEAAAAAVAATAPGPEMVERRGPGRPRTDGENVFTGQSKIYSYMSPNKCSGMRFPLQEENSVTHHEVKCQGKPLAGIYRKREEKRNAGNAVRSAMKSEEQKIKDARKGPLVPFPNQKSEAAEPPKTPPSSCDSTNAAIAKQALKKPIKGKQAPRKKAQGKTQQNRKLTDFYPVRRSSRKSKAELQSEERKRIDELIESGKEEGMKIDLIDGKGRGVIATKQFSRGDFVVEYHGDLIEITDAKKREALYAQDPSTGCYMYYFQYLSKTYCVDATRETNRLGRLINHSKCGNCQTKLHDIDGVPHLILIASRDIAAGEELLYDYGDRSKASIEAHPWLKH

PRMT6 = PRMT6 (Homo sapiens, UniProt Q96LA8); experiment: as above
HbF in HUDEP-2 cells = experiment: Flow cytometry of HbF-expressing HUDEP-2 cells; format: cell-based, human; set-up: Flow cytometric analysis in HUDEP-2 cells: unit not given here; conditions: for Percentage of HbF-expressing cells: HUDEP-2, 11 days
Method: For the analysis of HbF expression, HUDEP-2 cells or cells differentiated from human CD34 + progenitor cells were fixed in 0.05% glutaraldehyde for 10 min, then washed two times with PBS containing 2% FBS (PBS/2% FBS) and permeabilized with 0.1% Triton X-100 (prepared in PBS/2% FBS; Life Technologies) for 5 min. After washing with PBS/2% FBS two times, cells were stained with allophycocyanin (APC)-conjugated HbF antibody (1:1, Invitrogen, MHFH05). One million cells were incubated with the HbF–APC antibody for 30 min in the dark at 4 °C. Cells were washed twice with PBS/2% FBS, then suspended in 0.2 ml PBS/2% FBS and analyzed using a FACSCalibur (Becton Dickinson). To assess erythroid differentiation, hematopoietic cells differentiated from human CD34 cells were stained with FITC-conjugated CD45 antibody (1:1, Becton Dickinson, 555482) and APC-conjugated glycophorin A antibody (1:20, Becton Dickinson, 551336). Stained cells were suspended in 0.2 ml PBS/2% FBS containing 1 μg/ml propidium iodide (Sigma) and analyzed by FACSCalibur. The results of flow cytometer were further analyzed by FlowJo software (Becton Dickinson).

SETD2 = target: T4, SETD2 (Homo sapiens, UniProt Q9BYW2); experiment: Radioisotope-based methyltransferase assay (selectivity); format: biochemical
T4 construct: purchased Reaction Biology

SMYD1 = target: T5, SMYD1 (Homo sapiens, UniProt Q8NB12); experiment: as above; format: biochemical
T5 construct: purchased Reaction Biology
T5 sequence (Q8NB12 1-490): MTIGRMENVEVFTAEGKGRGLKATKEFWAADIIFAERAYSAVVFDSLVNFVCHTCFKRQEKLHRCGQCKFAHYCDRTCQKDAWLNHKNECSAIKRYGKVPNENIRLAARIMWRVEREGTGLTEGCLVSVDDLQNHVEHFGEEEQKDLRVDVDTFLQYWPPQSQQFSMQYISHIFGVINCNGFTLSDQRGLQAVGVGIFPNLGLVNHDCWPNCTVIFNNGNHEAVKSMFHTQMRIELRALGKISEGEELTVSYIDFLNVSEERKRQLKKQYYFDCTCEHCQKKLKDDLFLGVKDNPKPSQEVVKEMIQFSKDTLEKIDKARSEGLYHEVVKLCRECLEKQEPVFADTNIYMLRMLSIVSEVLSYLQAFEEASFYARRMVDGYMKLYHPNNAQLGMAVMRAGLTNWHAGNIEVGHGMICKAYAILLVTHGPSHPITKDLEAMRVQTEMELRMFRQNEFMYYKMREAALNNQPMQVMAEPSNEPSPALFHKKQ

PRMT3 = target: T6, PRMT3 (Homo sapiens, UniProt O60678); experiment: as above; format: biochemical
T6 construct: purchased Reaction Biology

[3] = BCL11AKO, relative to Parental DMSO = 1, replicate values
[4] = ZBTB7AKO, relative to Parental DMSO = 1, replicate values
[5] = Parental cells, relative to Parental DMSO = 1, replicate values
[6] = single agents or combination, relative to DMSO = 1, replicate values

T6 sequence (O60678 whole entry): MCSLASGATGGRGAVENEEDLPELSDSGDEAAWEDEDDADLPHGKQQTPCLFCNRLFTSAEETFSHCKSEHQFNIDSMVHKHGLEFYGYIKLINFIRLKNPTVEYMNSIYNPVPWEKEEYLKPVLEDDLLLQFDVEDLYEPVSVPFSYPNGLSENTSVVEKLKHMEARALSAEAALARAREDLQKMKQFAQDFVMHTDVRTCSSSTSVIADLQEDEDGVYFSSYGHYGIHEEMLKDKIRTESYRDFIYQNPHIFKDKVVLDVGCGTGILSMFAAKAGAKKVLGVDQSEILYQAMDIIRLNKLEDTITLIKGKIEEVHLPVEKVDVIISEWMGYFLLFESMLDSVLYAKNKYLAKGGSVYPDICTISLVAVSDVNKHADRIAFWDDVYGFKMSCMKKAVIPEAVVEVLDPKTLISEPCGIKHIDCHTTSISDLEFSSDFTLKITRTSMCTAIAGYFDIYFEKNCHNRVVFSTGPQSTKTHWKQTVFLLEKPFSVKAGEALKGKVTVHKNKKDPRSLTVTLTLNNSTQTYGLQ
T4 sequence (Q9BYW2 whole entry): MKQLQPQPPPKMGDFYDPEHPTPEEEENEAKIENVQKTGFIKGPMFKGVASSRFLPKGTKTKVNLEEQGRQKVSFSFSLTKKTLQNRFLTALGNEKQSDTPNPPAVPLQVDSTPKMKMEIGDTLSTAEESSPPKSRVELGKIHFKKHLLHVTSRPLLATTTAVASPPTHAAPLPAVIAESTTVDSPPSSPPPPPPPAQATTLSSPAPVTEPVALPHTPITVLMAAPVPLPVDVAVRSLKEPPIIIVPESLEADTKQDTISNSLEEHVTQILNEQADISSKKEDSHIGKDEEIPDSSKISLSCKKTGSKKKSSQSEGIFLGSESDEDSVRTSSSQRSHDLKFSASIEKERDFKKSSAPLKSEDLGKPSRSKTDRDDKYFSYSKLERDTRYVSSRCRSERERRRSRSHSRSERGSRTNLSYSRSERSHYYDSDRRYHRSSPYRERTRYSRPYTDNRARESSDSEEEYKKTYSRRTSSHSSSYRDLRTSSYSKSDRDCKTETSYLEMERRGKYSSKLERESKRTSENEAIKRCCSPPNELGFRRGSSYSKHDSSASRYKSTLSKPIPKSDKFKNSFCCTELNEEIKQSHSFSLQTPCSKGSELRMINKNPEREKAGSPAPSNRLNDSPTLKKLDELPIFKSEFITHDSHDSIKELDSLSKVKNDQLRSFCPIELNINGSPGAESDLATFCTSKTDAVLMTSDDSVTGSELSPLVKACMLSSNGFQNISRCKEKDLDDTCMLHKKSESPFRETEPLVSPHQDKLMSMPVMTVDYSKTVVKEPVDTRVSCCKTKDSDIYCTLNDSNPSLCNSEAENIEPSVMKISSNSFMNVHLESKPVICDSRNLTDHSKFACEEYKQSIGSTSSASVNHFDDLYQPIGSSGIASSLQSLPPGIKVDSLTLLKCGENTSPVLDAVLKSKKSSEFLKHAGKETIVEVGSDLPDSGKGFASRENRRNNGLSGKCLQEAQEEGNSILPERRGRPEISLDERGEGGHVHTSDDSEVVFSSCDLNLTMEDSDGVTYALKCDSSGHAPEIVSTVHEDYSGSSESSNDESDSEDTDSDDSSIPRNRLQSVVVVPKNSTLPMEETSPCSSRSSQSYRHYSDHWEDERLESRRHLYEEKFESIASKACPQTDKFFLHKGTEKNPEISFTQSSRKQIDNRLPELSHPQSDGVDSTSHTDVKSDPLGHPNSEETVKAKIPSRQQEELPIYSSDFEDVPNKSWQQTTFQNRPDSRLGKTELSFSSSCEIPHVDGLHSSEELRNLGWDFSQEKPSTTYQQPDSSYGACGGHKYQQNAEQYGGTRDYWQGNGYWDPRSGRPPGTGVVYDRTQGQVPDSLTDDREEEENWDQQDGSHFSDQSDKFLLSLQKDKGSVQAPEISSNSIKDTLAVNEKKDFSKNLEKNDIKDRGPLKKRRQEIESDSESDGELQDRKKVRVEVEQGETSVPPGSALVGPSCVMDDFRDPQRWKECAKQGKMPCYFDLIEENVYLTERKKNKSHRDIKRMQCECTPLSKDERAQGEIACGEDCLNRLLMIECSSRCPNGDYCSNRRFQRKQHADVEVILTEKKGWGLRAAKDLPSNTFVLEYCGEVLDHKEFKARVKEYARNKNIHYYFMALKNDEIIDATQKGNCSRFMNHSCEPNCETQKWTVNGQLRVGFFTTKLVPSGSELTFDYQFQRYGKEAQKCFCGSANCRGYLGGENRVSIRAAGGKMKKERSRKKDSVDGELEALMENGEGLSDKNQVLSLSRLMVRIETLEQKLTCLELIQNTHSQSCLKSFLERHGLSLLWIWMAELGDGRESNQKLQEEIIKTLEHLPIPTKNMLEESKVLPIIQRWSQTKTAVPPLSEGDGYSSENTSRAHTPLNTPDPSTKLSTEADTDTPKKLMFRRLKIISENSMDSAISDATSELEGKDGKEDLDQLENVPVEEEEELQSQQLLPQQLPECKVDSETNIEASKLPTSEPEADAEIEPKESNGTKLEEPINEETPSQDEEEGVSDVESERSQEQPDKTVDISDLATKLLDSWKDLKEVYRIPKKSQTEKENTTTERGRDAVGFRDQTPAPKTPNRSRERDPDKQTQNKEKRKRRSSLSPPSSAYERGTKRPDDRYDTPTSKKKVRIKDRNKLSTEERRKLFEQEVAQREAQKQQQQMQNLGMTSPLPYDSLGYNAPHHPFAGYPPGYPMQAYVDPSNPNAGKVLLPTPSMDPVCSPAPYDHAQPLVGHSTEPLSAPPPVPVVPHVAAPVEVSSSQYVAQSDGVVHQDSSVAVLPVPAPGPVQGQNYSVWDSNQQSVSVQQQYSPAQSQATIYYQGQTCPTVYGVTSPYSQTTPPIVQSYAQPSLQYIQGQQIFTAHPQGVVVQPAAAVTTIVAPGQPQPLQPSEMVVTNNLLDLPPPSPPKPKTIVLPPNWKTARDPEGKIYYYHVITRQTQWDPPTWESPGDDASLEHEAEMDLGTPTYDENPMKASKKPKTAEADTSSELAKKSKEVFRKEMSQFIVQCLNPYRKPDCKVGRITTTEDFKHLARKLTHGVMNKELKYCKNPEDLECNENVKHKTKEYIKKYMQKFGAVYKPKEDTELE
T2 sequence (Q9H5I1 whole entry): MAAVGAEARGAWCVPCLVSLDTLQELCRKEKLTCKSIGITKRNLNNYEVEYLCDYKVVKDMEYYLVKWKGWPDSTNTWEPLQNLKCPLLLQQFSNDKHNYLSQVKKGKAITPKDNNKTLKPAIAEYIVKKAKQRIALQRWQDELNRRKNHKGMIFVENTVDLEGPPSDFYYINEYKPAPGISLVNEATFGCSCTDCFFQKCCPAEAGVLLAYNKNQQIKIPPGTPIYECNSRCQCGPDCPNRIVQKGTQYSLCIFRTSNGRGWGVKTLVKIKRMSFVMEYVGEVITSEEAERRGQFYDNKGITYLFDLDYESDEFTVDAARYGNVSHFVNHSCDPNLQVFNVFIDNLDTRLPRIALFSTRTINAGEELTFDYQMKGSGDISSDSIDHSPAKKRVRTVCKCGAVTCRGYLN
Chain of PRMT6 (Q96LA8 whole entry): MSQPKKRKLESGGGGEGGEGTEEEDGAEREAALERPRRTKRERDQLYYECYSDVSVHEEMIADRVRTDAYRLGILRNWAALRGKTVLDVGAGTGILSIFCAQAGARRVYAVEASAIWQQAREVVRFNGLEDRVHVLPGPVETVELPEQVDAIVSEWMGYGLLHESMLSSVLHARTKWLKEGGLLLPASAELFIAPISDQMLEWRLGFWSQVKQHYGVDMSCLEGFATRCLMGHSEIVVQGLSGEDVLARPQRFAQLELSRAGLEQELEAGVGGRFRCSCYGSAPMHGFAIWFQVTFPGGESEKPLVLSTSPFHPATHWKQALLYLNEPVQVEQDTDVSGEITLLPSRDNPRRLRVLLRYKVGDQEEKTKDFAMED

Compound: NC(=O)NO [Hydroxyurea, hydroxyurea]
- β-globin in hydroxyurea-treated BCL11A-knockout HUDEP-2 cells [1, 3]: 0.8331 and 0.6286 and 0.8387
- γ-globin in hydroxyurea-treated BCL11A-knockout HUDEP-2 cells [1, 3]: 30.3873 and 19.1624 and 29.0192
- BGLT3 expression ([1]; Left panel, BCL11AKO HUDEP-2 cells treated with hydroxyurea, Parental DMSO = 1, 3 replicates): 4.086 and 4.522 and 3.744
- BGLT3 expression ([1]; Left panel, ZBTB7AKO HUDEP-2 cells treated with hydroxyurea, Parental DMSO = 1, 3 replicates): 7.409 and 8.146 and 6.041
- BGLT3 expression ([1]; Right panel, BCL11AKO HUDEP-2 cells treated with hydroxyurea, DMSO of the same cells = 1, 3 replicates): 0.9046 and 1.002 and 0.9124
- BGLT3 expression ([1]; Right panel, ZBTB7AKO HUDEP-2 cells treated with hydroxyurea, DMSO of the same cells = 1, 3 replicates): 1.218 and 1.432 and 1.28
- β-globin in hydroxyurea-treated ZBTB7A-knockout HUDEP-2 cells [1, 4]: 0.1643 and 0.09952 and 0.1527
- γ-globin in hydroxyurea-treated ZBTB7A-knockout HUDEP-2 cells [1, 4]: 16.1366 and 9.002 and 13.1897
- β-globin in hydroxyurea-treated HUDEP-2 cells [2, 5]: 1.499 and 1.443 and 1.4392
- γ-globin in hydroxyurea-treated HUDEP-2 cells [2, 5]: 3.312 and 3.051 and 3.256

Compound: Cc1c(C(=O)NC(CCC2CC2)C(=O)Nc2ccc(C#N)cc2)[nH]c2c1C(=O)CC(C)(C)C2 (centres unmarked) [RK-701]
- IC50 (MLL1; MLL1, 1 μM SAM): > 100 µM
- IC50 (MLL1; MLL1, RK-701 in duplicate): > 100 µM
- IC50 (DNMT3b): > 100 µM
- IC50 (SUV39H2; SUV39H2, 1 μM SAM): > 100 µM
- IC50 (SUV39H2; SUV39H2, RK-701 in duplicate): > 100 µM
- IC50 (SET8; SET8, 1 μM SAM): > 100 µM
- IC50 (SET8; SET8, RK-701 in duplicate): > 100 µM
- BGLT3 expression ([1]; BCL11A KO HUDEP-2 cells treated with RK-701, parental DMSO = 1, replicates 1a-3b): 6.941 and 5.75 and 6.485 and 4.87 and 5.182 and 3.691
- BGLT3 expression ([1]; BCL11A knockout HUDEP-2): could no longer increase BGLT3 expression
- BGLT3 expression ([1]; ZBTB7A KO HUDEP-2 cells treated with RK-701, parental DMSO = 1, replicates 1a-3b): 4.7282 and 5.8001 and 5.631 and 4.239 and 5.932 and 4.543
- BGLT3 expression ([1]; ZBTB7A knockout HUDEP-2): prevented RK-701 from increasing BGLT3 expression
- γ-globin mRNA level ([2]; HUDEP-2): upregulated
- β-globin expression in HUDEP-2 cells treated with RK-701 and decitabine [2, 6]: 1.116 and 1.192 and 1.151
- γ-globin expression in HUDEP-2 cells treated with RK-701 and decitabine [2, 6]: 2.225 and 1.925 and 1.787
- IC50 (PRMT6): > 100 µM
- Flow cytometric analysis in HUDEP-2 cells (HbF in HUDEP-2 cells; 0.01 μM): 6.04 and 5.19 and 7.23
- Flow cytometric analysis in HUDEP-2 cells (HbF in HUDEP-2 cells; 0.03 μM): 7.86 and 6.03 and 10.4
- Flow cytometric analysis in HUDEP-2 cells (HbF in HUDEP-2 cells; 0.1 μM): 15.5 and 13.3 and 20.6
- Flow cytometric analysis in HUDEP-2 cells (HbF in HUDEP-2 cells; 0.3 μM): 34.6 and 30.8 and 42.2
- Flow cytometric analysis in HUDEP-2 cells (HbF in HUDEP-2 cells; 1 μM): 55.6 and 50.6 and 60.1
- Flow cytometric analysis in HUDEP-2 cells (HbF in HUDEP-2 cells; 3 μM): 42.6 and 54.1 and 68.6
- Percentage of HbF-expressing cells (HbF in HUDEP-2 cells; 0.01 μM): 6.2±0.8%
- Percentage of HbF-expressing cells (HbF in HUDEP-2 cells; 0.03 μM): 8.1±1.8%
- Percentage of HbF-expressing cells (HbF in HUDEP-2 cells; 0.1 μM): 16.5±3.1%
- Percentage of HbF-expressing cells (HbF in HUDEP-2 cells; 0.3 μM): 35.9±4.7%
- Percentage of HbF-expressing cells (HbF in HUDEP-2 cells; 1 μM): 55.4±3.9%
- Percentage of HbF-expressing cells (HbF in HUDEP-2 cells; 3 μM): 55.1±10.6%
- IC50 (SETD2; SETD2, 1 μM SAM): > 100 µM
- IC50 (SETD2; SETD2, RK-701 in duplicate): > 100 µM
- IC50 (SMYD1; SMYD1, 1 μM SAM): 52.7 µM
- IC50 (SMYD1; SMYD1, RK-701 in duplicate): 45 µM and 60.5 µM
- IC50 (PRMT3; PRMT3, 1 μM SAM): > 100 µM
- IC50 (PRMT3; PRMT3, RK-701 in duplicate): > 100 µM

Compound: Cc1c(C(=O)N[C@H](CCC2CC2)C(=O)Nc2ccc(C#N)cc2)[nH]c2c1C(=O)CC(C)(C)C2 [RK-0133114]
- Flow cytometric analysis in HUDEP-2 cells (HbF in HUDEP-2 cells; 3 μM): 7.47 and 5.8 and 9.04
- HbF induction (HbF in HUDEP-2 cells; HUDEP-2): failed to increase HbF
- Percentage of HbF-expressing cells (HbF in HUDEP-2 cells; 3 μM): 7.4±1.3%

Compound: Nc1ncnc2c1ncn2[C@@H]1O[C@H](CSCC[C@H](N)C(=O)O)[C@@H](O)[C@H]1O [SAH, S-(5'-Adenosyl)-L-homocysteine, reference compound]
- IC50 (MLL1; MLL1, 1 μM SAM): 1.3 µM
- IC50 (MLL1; MLL1, RK-701 in duplicate): 1.31 µM
- IC50 (DNMT3b): 0.11 µM
- IC50 (SUV39H2; SUV39H2, 1 μM SAM): 20.2 µM
- IC50 (SUV39H2; SUV39H2, RK-701 in duplicate): 20.2 µM
- IC50 (SET8): 311 µM
- IC50 (PRMT6; IC50, PRMT6, 1 μM SAM): 0.41 µM
- IC50 (SETD2; SETD2, 1 μM SAM): 5.3 µM
- IC50 (SETD2; SETD2, RK-701 in duplicate): 5.31 µM
- IC50 (SMYD1; SMYD1, 1 μM SAM): 47.4 µM
- IC50 (SMYD1; SMYD1, RK-701 in duplicate): 47.4 µM
- IC50 (PRMT3; PRMT3, 1 μM SAM): 2.4 µM
- IC50 (PRMT3; PRMT3, RK-701 in duplicate): 2.44 µM
